# From patent US11236129B2, “IL-17A binding peptides and medical uses thereof” (Dompe' Farmaceutici S.P.A., priority 2018, dated 2022)
# Residues, ends and D or L forms follow the SMILES beside them.
# What was measured:
# [1] = Isoelectric point, log D and log P (SiriusT3); type: physicochemical; settings: for IP (isoelectric point): 25±1° C., 0.15 M KCl; for logP: octanol/ISA water, read-out: logP; for logD: pH 7.4, pH 7.4, octanol/ISA water, read-out: Log D (7.4)
# [2] = target: IL-17RA/IL17RC dimerization induced by IL-17A (Homo sapiens, UniProt Q16552); test: IL-17RA/IL17RC dimerization assay in response to IL-17A (PathHunter Cytokine Receptor Assay); type: cell-based; settings: IL-17A at EC80; read-out: IC50 in IL-17RA/IL7RC dimerization assay
# Method in brief: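 Receptor dimerization was read as chemiluminescence from complemented β-galactosidase after IL-17A at EC80 concentration for 6–16 h at 37 °C. Peptides were added 60 min before agonist, at 37 °C or room temperature, with 1% vehicle. Percent inhibition used the EC80-stimulated and vehicle wells as references.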
# [3] = type: physicochemical; settings: pH 7.8
# Method in brief: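 Peptides dissolved in phosphate buffer pH 7.8 as 10 mM stocks (more dilute for less soluble ones) and stored at 25 °C. Content measured by reversed-phase UHPLC (C18, 0.5% formic acid water/acetonitrile gradient, DAD 220-400 nm, ESI-MS ion trap) after 1:100 dilution to 100 μM, against 100 μM standards, at T0, 3 days and 1 week.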
# IL-17RA/IL17RC dimerization induced by IL-17A, sequence (Q16552 24-155): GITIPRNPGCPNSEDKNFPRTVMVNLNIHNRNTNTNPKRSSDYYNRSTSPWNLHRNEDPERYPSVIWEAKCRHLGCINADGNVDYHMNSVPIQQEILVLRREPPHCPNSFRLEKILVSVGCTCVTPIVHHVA
IP (isoelectric point) [1],logP [1],logD [1],IC50 [2],solubility [3],SMILES
4.21,-4.93,-3.5,< 200 nM,> 10 mM,CC[C@H](C)[C@H](NC(=O)[C@H](Cc1c[nH]c2ccccc12)NC(=O)[C@H](CCC(=O)O)NC(=O)[C@H](Cc1ccc(O)cc1)NC(=O)[C@H](CC(C)C)NC(=O)[C@H](CC(=O)O)NC(=O)[C@H](C)NC(=O)[C@@H]1CCCN1C(=O)[C@@H](NC(=O)[C@@H](NC(=O)[C@@H](NC(=O)[C@H](CCSC)NC(=O)[C@@H](NC(C)=O)C(C)C)C(C)C)[C@@H](C)O)[C@@H](C)CC)C(=O)N[C@@H](CCC(=O)O)C(=O)N[C@@H](CCC(=O)O)C(=O)N[C@H](C(=O)N1CCC[C@H]1C(=O)NCC(=O)N[C@@H](CC(=O)O)C(=O)NCC(N)=O)C(C)C [SEQ ID NO: 40] (Ac-VMVTIPADLYEWIEEVPGDG-NH2)
12.49,,-3.94,< 1000 nM,≥ 0.1 mM,CC[C@H](C)[C@H](NC(=O)[C@H](Cc1c[nH]c2ccccc12)NC(=O)[C@H](CCC(=O)O)NC(=O)[C@H](Cc1ccc(O)cc1)NC(=O)[C@H](CC(C)C)NC(=O)[C@H](CC(=O)O)NC(=O)[C@H](C)NC(=O)[C@@H]1CCCN1C(=O)[C@@H](NC(=O)[C@@H](NC(=O)[C@@H](NC(=O)[C@H](CCSC)NC(=O)[C@@H](NC(C)=O)C(C)C)C(C)C)[C@@H](C)O)[C@@H](C)CC)C(=O)N[C@@H](CCC(=O)O)C(=O)N[C@@H](CCC(=O)O)C(=O)N[C@@H](CCCNC(=N)N)C(=O)N[C@@H](CCCNC(=N)N)C(=O)N[C@@H](CCCNC(=N)N)C(=O)N[C@@H](CCCNC(=N)N)C(=O)N[C@@H](CCCNC(=N)N)C(=O)N[C@@H](CCCNC(=N)N)C(N)=O [SEQ ID NO: 19] (Ac-VMVTIPADLYEWIEERRRRRR-NH2)
5.14,-5.43,-3.52,< 1000 nM,> 10 mM,CC[C@H](C)[C@H](NC(=O)[C@H](Cc1c[nH]c2ccccc12)NC(=O)[C@H](CCC(=O)O)NC(=O)[C@H](Cc1ccc(O)cc1)NC(=O)[C@H](CC(C)C)NC(=O)[C@H](CC(=O)O)NC(=O)[C@H](C)NC(=O)[C@@H]1CCCN1C(=O)[C@@H](NC(=O)[C@@H](NC(=O)[C@@H](NC(=O)[C@H](CCSC)NC(=O)[C@@H](NC(=O)CNC(=O)[C@H](C)NC(=O)CNC(=O)[C@@H]1CCCN1C(=O)[C@@H](NC(C)=O)C(C)C)C(C)C)C(C)C)[C@@H](C)O)[C@@H](C)CC)C(=O)N[C@@H](CCC(=O)O)C(=O)N[C@@H](CCC(=O)O)C(N)=O [SEQ ID NO: 35] (Ac-VPGAGVMVTIPADLYEWIEE-NH2)
,,-3.59,< 1000 nM,< 0.05 mM,CC[C@H](C)[C@H](NC(=O)[C@H](Cc1c[nH]c2ccccc12)NC(=O)[C@H](CCC(=O)O)NC(=O)[C@H](Cc1ccc(O)cc1)NC(=O)[C@H](CC(C)C)NC(=O)[C@H](CC(=O)O)NC(=O)[C@H](C)NC(=O)[C@@H]1CCCN1C(=O)[C@@H](NC(=O)[C@@H](NC(=O)[C@@H](NC(=O)[C@H](CCSC)NC(=O)[C@@H](NC(=O)[C@H](CCC(N)=O)NC(=O)[C@H](CO)NC(=O)[C@H](Cc1c[nH]c2ccccc12)NC(=O)[C@H](CCC(=O)O)NC(=O)[C@@H](NC(=O)[C@H](Cc1c[nH]c2ccccc12)NC(=O)[C@H](Cc1c[nH]c2ccccc12)NC(=O)[C@@H](NC(=O)CNC(=O)CNC(C)=O)[C@@H](C)O)[C@@H](C)O)C(C)C)C(C)C)[C@@H](C)O)[C@@H](C)CC)C(=O)N[C@@H](CCC(=O)O)C(=O)N[C@@H](CCC(=O)O)C(N)=O [SEQ ID NO: 32] (Ac-GGTWWTEWSQVMVTIPADLYEWIEE-NH2)
5.19,-0.51,-1.26,< 100 nM,≥ 1 mM,CC[C@H](C)[C@H](NC(C)=O)C(=O)N[C@@H](Cc1c[nH]cn1)C(=O)N[C@H](C(=O)N[C@H](C(=O)N[C@H](C(=O)N1CCC[C@H]1C(=O)N[C@@H](C)C(=O)N[C@@H](CCC(=O)O)C(=O)N[C@@H](CC(C)C)C(=O)N[C@@H](Cc1c[nH]c2ccccc12)C(=O)N[C@@H](CC(=O)O)C(=O)N[C@@H](Cc1c[nH]c2ccccc12)C(=O)N[C@H](C(=O)N[C@@H](CC(N)=O)C(=O)N[C@@H](CCCCN)C(N)=O)[C@@H](C)CC)[C@@H](C)CC)[C@@H](C)O)C(C)C [SEQ ID NO: 5] (Ac-IHVTIPAELWDWINK-NH2)
4.2,-5.36,-2.86,< 200 nM,> 10 mM,CC[C@H](C)[C@H](NC(=O)[C@H](Cc1c[nH]c2ccccc12)NC(=O)[C@H](CCC(=O)O)NC(=O)[C@H](Cc1ccc(O)cc1)NC(=O)[C@H](CC(C)C)NC(=O)[C@H](CC(=O)O)NC(=O)[C@H](C)NC(=O)[C@@H]1CCCN1C(=O)[C@@H](NC(=O)[C@@H](NC(=O)[C@@H](NC(=O)[C@H](CCSC)NC(=O)[C@@H](NC(=O)CNC(=O)[C@H](CC(=O)O)NC(=O)CNC(=O)[C@@H]1CCCN1C(=O)[C@@H](NC(C)=O)C(C)C)C(C)C)C(C)C)[C@@H](C)O)[C@@H](C)CC)C(=O)N[C@@H](CCC(=O)O)C(=O)N[C@@H](CCC(=O)O)C(N)=O [SEQ ID NO: 39] (Ac-VPGDGVMVTIPADLYEWIEE-NH2)
4.66,0.4,-5.64,< 1000 nM,≥ 0.1 mM,CC[C@H](C)[C@H](NC(=O)[C@H](Cc1c[nH]c2ccccc12)NC(=O)[C@H](CCC(=O)O)NC(=O)[C@H](Cc1ccc(O)cc1)NC(=O)[C@H](CC(C)C)NC(=O)[C@H](CC(=O)O)NC(=O)[C@H](C)NC(=O)[C@@H]1CCCN1C(=O)[C@@H](NC(=O)[C@@H](NC(=O)[C@@H](NC(=O)[C@H](CCSC)NC(=O)[C@@H](NC(C)=O)C(C)C)C(C)C)[C@@H](C)O)[C@@H](C)CC)C(=O)N[C@@H](CCC(=O)O)C(=O)N[C@@H](CCC(=O)O)C(=O)NCC(=O)NCC(=O)N[C@@H](CCCCN)C(=O)N[C@@H](CCC(=O)O)C(=O)N[C@H](C(=O)N[C@@H](Cc1c[nH]c2ccccc12)C(=O)N[C@@H](Cc1c[nH]c2ccccc12)C(=O)N[C@@H](CCC(=O)O)C(=O)N[C@H](C(=O)N[C@@H](Cc1c[nH]c2ccccc12)C(N)=O)[C@@H](C)O)[C@@H](C)O [SEQ ID NO: 25] (Ac-VMVTIPADLYEWIEEGGKETWWETW-NH2)
8.05,-0.44,-3.68,< 400 nM,> 10 mM,CC[C@H](C)[C@H](NC(=O)[C@H](Cc1c[nH]c2ccccc12)NC(=O)[C@H](CCC(=O)O)NC(=O)[C@H](Cc1ccc(O)cc1)NC(=O)[C@H](CC(C)C)NC(=O)[C@H](CC(=O)O)NC(=O)[C@H](C)NC(=O)[C@@H]1CCCN1C(=O)[C@@H](NC(=O)[C@@H](NC(=O)[C@@H](NC(=O)[C@H](CCSC)NC(=O)[C@@H](NC(C)=O)C(C)C)C(C)C)[C@@H](C)O)[C@@H](C)CC)C(=O)N[C@@H](CCCNC(=N)N)C(=O)N[C@@H](CCCNC(=N)N)C(N)=O [SEQ ID NO: 17] (Ac-VMVTIPADLYEWIRR-NH2)
